# Laboratory results reported in patent US20260274829A1, “NEW E3 UBIQUITIN LIGASE LIGAND, PROTEIN DEGRADATION AGENT AND USE THEREOF” (GLUETACS THERAPEUTICS (SHANGHAI) CO., LTD., priority 2023, published 2026).
# Target: T1, human Cereblon WT GST-tagged protein (Homo sapiens, UniProt Q96SW2)
# T1 construct: purchased CISBIO 64BDCRBNPEH
# Experiment: CRBN binding, HTRF CEREBLON BINDING kit
# Conditions: CRBN binding, HTRF CEREBLON BINDING kit
# Summary of the method: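 Binding inhibition was calculated from the 665/620 nm emission ratios, with blank wells and solvent wells as references. Test compounds competed for GST-tagged human Cereblon WT against a Thalidomide-Re reagent paired with GST Eu antibody. Plates were sealed and held at room temperature for 3 hours before the HTRF read.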
# T1 sequence (Q96SW2 whole entry): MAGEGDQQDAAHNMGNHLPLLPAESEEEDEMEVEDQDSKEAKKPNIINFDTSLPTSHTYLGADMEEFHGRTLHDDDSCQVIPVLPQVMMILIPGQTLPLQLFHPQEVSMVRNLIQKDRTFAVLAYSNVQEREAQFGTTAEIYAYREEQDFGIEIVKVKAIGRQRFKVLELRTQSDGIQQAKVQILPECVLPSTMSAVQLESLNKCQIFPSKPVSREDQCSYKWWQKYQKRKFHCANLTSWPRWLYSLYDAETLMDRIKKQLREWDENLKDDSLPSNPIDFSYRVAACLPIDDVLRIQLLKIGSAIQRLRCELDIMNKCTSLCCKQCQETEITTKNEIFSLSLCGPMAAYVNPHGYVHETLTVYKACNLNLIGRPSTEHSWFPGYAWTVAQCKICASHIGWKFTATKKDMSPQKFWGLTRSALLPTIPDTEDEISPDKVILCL
row,Structure (SMILES),IC50
1,"Cn1cc(-c2cc(S(C)(=O)=O)ccc2OCc2ccc(C3CCC(=O)NC3=O)cc2)c2cc[nH]c2c1=O (centres unmarked) [GT-06415, 3-(4-((2-(6-methyl-7-oxo-6,7-dihydro-1H-pyrrolo[2,3-c]pyridin-4-yl)-4-(methylsulfonyl)phenoxy)methyl)phenyl)piperidine-2,6-dione]",< 500 nM
2,"Cn1cc(-c2cc(S(C)(=O)=O)ccc2OCc2ccc(N3CCC(=O)NC3=O)cn2)c2cc[nH]c2c1=O [GT-06416, 1-(6-((2-(6-methyl-7-oxo-6,7-dihydro-1H-pyrrolo[2,3-c]pyridin-4-yl)-4-(methylsulfonyl)phenoxy)methyl)pyridin-3-yl)dihydropyrimidine-2,4(1H,3H)-dione]",1000 to 1900 nM
3,"CN(C)C(=O)c1cc2cnc(Nc3ccc(N4CCC(N(C)Cc5ccc(C6CCC(=O)NC6=O)cc5)CC4)cn3)nc2n1C1CCCC1 (centres unmarked) [GT-06490, 7-cyclopentyl-2-((5-(4-((4-(2,6-dioxopiperidin-3-yl)benzyl)(methyl)amino)piperidin-1-yl)pyridin-2-yl)amino)-N,N-dimethyl-7H-pyrrolo[2,3-d]pyrimidine-6-carboxamide]",500 to 1000 nM
4,"CN(C)C(=O)c1cc2cnc(Nc3ccc(N4CCC(N(C)Cc5ccc(N6CCC(=O)NC6=O)cc5)CC4)cn3)nc2n1C1CCCC1 [GT-06491, 7-cyclopentyl-2-((5-(4-((4-(2,4-dioxotetrahydropyrimidin-1(2H)-yl)benzyl)(methyl)amino)piperidin-1-yl)pyridin-2-yl)amino)-N,N-dimethyl-7H-pyrrolo[2,3-d]pyrimidine-6-carboxamide]",500 to 1000 nM
5,"CN(C)C(=O)c1cc2cnc(Nc3ccc(N4CCC(N(C)Cc5cccc(N6CCC(=O)NC6=O)c5)CC4)cn3)nc2n1C1CCCC1 [GT-06492, 7-cyclopentyl-2-((5-(4-((3-(2,4-dioxotetrahydropyrimidin-1(2H)-yl)benzyl)(methyl)amino)piperidin-1-yl)pyridin-2-yl)amino)-N,N-dimethyl-7H-pyrrolo[2,3-d]pyrimidine-6-carboxamide]",1000 to 1900 nM
6,"CN(C)C(=O)c1cc2cnc(Nc3ccc(N4CCC(N(C)Cc5ccc(N6CCC(=O)NC6=O)cn5)CC4)cn3)nc2n1C1CCCC1 [GT-06493, 7-cyclopentyl-2-((5-(4-(((5-(2,4-dioxotetrahydropyrimidin-1(2H)-yl)pyridin-2-yl)methyl)(methyl)amino)piperidin-1-yl)pyridin-2-yl)amino)-N,N-dimethyl-7H-pyrrolo[2,3-d]pyrimidine-6-carboxamide]",500 to 1000 nM
7,"CC(=O)c1c(C)c2cnc(Nc3ccc(N4CCN(Cc5ccc(C6CCC(=O)NC6=O)cc5)CC4)cn3)nc2n(C2CCCC2)c1=O (centres unmarked) [GT-06575, 3-(4-((4-(6-((6-acetyl-8-cyclopentyl-5-methyl-7-oxo-7,8-dihydropyrido[2,3-d]pyrimidin-2-yl)amino)pyridin-3-yl)piperazin-1-yl)methyl)phenyl)piperidine-2,6-dione]",500 to 1000 nM
8,"CC(=O)c1c(C)c2cnc(Nc3ccc(N4CCN(Cc5cccc(N6CCC(=O)NC6=O)c5)CC4)cn3)nc2n(C2CCCC2)c1=O [GT-06577, 1-(3-((4-(6-((6-acetyl-8-cyclopentyl-5-methyl-7-oxo-7,8-dihydropyrido[2,3-d]pyrimidin-2-yl)amino)pyridin-3-yl)piperazin-1-yl)methyl)phenyl)dihydropyrimidine-2,4(1H,3H)-dione]",1000 to 1900 nM
9,"CC(=O)c1c(C)c2cnc(Nc3ccc(N4CCN(Cc5ccc(N6CCC(=O)NC6=O)cn5)CC4)cn3)nc2n(C2CCCC2)c1=O [GT-06578, 1-(6-((4-(6-((6-acetyl-8-cyclopentyl-5-methyl-7-oxo-7,8-dihydropyrido[2,3-d]pyrimidin-2-yl)amino)pyridin-3-yl)piperazin-1-yl)methyl)pyridin-3-yl)dihydropyrimidine-2,4(1H,3H)-dione]",1000 to 1900 nM
10,"CC(=O)c1c(C)c2cnc(Nc3ccc(N4CCC(N5CCN(Cc6ccc(C7CCC(=O)NC7=O)cc6)CC5)CC4)cn3)nc2n(C2CCCC2)c1=O (centres unmarked) [GT-06659, 3-(4-((4-(1-(6-((6-acetyl-8-cyclopentyl-5-methyl-7-oxo-7,8-dihydropyrido[2,3-d]pyrimidin-2-yl)amino)pyridin-3-yl)piperidin-4-yl)piperazin-1-yl)methyl)phenyl)piperidine-2,6-dione]",500 to 1000 nM
11,"Cc1nc2c(F)cc(-c3nc(Nc4ccc(CN5CCN(Cc6ccc(C7CCC(=O)NC7=O)cc6)CC5)cn4)ncc3F)cc2n1C(C)C (centres unmarked) [GT-06664, 3-(4-((4-((6-((5-fluoro-4-(4-fluoro-1-isopropyl-2-methyl-1H-benzo[d]imidazol-6-yl)pyrimidin-2-yl)amino)pyridin-3-yl)methyl)piperazin-1-yl)methyl)phenyl)piperidine-2,6-dione]",500 to 1000 nM
12,"Cc1nc2c(F)cc(-c3nc(Nc4ccc(CN5CCN(Cc6ccc(N7CCC(=O)NC7=O)cc6)CC5)cn4)ncc3F)cc2n1C(C)C [GT-06665, 1-(4-((4-((6-((5-fluoro-4-(4-fluoro-1-isopropyl-2-methyl-1H-benzo[d]imidazol-6-yl)pyrimidin-2-yl)amino)pyridin-3-yl)methyl)piperazin-1-yl)methyl)phenyl)dihydropyrimidine-2,4(1H,3H)-dione]",1000 to 1900 nM
13,"Cc1nc2c(F)cc(-c3nc(Nc4ccc(CN5CCN(Cc6cccc(N7CCC(=O)NC7=O)c6)CC5)cn4)ncc3F)cc2n1C(C)C [GT-06666, 1-(3-((4-((6-((5-fluoro-4-(4-fluoro-1-isopropyl-2-methyl-1H-benzo[d]imidazol-6-yl)pyrimidin-2-yl)amino)pyridin-3-yl)methyl)piperazin-1-yl)methyl)phenyl)dihydropyrimidine-2,4(1H,3H)-dione]",< 500 nM
14,"Cc1nc2c(F)cc(-c3nc(Nc4ccc(CN5CCN(Cc6ccc(N7CCC(=O)NC7=O)cn6)CC5)cn4)ncc3F)cc2n1C(C)C [GT-06667, 1-(6-((4-((6-((5-fluoro-4-(4-fluoro-1-isopropyl-2-methyl-1H-benzo[d]imidazol-6-yl)pyrimidin-2-yl)amino)pyridin-3-yl)methyl)piperazin-1-yl)methyl)pyridin-3-yl)dihydropyrimidine-2,4(1H,3H)-dione]",1000 to 1900 nM
15,"Cc1nc2c(F)cc(-c3nc(Nc4ccc(N5CCC(N(C)Cc6ccc(C7CCC(=O)NC7=O)cc6)CC5)cn4)ncc3F)cc2n1C(C)C (centres unmarked) [GT-06735, 3-(4-(((1-(6-((5-fluoro-4-(4-fluoro-1-isopropyl-2-methyl-1H-benzo[d]imidazol-6-yl)pyrimidin-2-yl)amino)pyridin-3-yl)piperidin-4-yl)(methyl)amino)methyl)phenyl)piperidine-2,6-dione]",500 to 1000 nM

# Results, then the compound that gave them:
row,IC50,Structure (SMILES)
1,500 to 1000 nM,"Cc1nc2c(F)cc(-c3nc(Nc4ccc(N5CCC(N6CCN(Cc7ccc(N8CCC(=O)NC8=O)cc7)CC6)CC5)cn4)ncc3F)cc2n1C(C)C [GT-06739, 1-(4-((4-(1-(6-((5-fluoro-4-(4-fluoro-1-isopropyl-2-methyl-1H-benzo[d]imidazol-6-yl)pyrimidin-2-yl)amino)pyridin-3-yl)piperidin-4-yl)piperazin-1-yl)methyl)phenyl)dihydropyrimidine-2,4(1H,3H)-dione]"
2,500 to 1000 nM,"Cc1nc2c(F)cc(-c3nc(Nc4ccc(N5CCC(N6CCN(Cc7cccc(N8CCC(=O)NC8=O)c7)CC6)CC5)cn4)ncc3F)cc2n1C(C)C [GT-06740, 1-(3-((4-(1-(6-((5-fluoro-4-(4-fluoro-1-isopropyl-2-methyl-1H-benzo[d]imidazol-6-yl)pyrimidin-2-yl)amino)pyridin-3-yl)piperidin-4-yl)piperazin-1-yl)methyl)phenyl)dihydropyrimidine-2,4(1H,3H)-dione]"
3,500 to 1000 nM,"Cc1nc2c(F)cc(-c3nc(Nc4ccc(N5CCC(N6CCN(Cc7ccc(N8CCC(=O)NC8=O)cn7)CC6)CC5)cn4)ncc3F)cc2n1C(C)C [GT-06741, 1-(6-((4-(1-(6-((5-fluoro-4-(4-fluoro-1-isopropyl-2-methyl-1H-benzo[d]imidazol-6-yl)pyrimidin-2-yl)amino)pyridin-3-yl)piperidin-4-yl)piperazin-1-yl)methyl)pyridin-3-yl)dihydropyrimidine-2,4(1H,3H)-dione]"
4,1000 to 1900 nM,"Cc1nc2c(F)cc(-c3nc(Nc4ccc(N5CCC(N6CCN(Cc7cccc(NC8CCC(=O)NC8=O)c7)CC6)CC5)cn4)ncc3F)cc2n1C(C)C (centres unmarked) [GT-06743, 3-((3-((4-(1-(6-((5-fluoro-4-(4-fluoro-1-isopropyl-2-methyl-1H-benzo[d]imidazol-6-yl)pyrimidin-2-yl)amino)pyridin-3-yl)piperidin-4-yl)piperazin-1-yl)methyl)phenyl)amino)piperidine-2,6-dione]"
5,500 to 1000 nM,"Nc1nc(Nc2ccc(S(=O)(=O)N3CCN(Cc4ccc(C5CCC(=O)NC5=O)cc4)CC3)cc2)nn1C(=O)c1c(F)cccc1F (centres unmarked) [GT-06750, 3-(4-((4-((4-((5-amino-1-(2,6-difluorobenzoyl)-1H-1,2,4-triazol-3-yl)amino)phenyl)sulfonyl)piperazin-1-yl)methyl)phenyl)piperidine-2,6-dione]"
6,1000 to 1900 nM,"Nc1nc(Nc2ccc(S(=O)(=O)N3CCN(Cc4ccc(N5CCC(=O)NC5=O)cc4)CC3)cc2)nn1C(=O)c1c(F)cccc1F [GT-06751, 1-(4-((4-((4-((5-amino-1-(2,6-difluorobenzoyl)-1H-1,2,4-triazol-3-yl)amino)phenyl)sulfonyl)piperazin-1-yl)methyl)phenyl)dihydropyrimidine-2,4(1H,3H)-dione]"
7,< 500 nM,"Cc1cc(S(=O)(=O)N2CCN(Cc3cccc(N4CCC(=O)NC4=O)c3)CC2)ccc1Nc1ncc(Br)c(Nc2cccc(F)c2C(N)=O)n1 [GT-06832, 2-((5-bromo-2-((4-((4-(3-(2,4-dioxotetrahydropyrimidin-1(2H)-yl)benzyl)piperazin-1-yl)sulfonyl)-2-methylphenyl)amino)pyrimidin-4-yl)amino)-6-fluorobenzamide]"
8,500 to 1000 nM,"Cc1nc2c(F)cc(-c3nc(Nc4ccc(N5CCC(N(C)Cc6ccc(N7CCC(=O)NC7=O)cc6)CC5)cn4)ncc3F)cc2n1C(C)C [GT-06838, 1-(4-(((1-(6-((5-fluoro-4-(4-fluoro-1-isopropyl-2-methyl-1H-benzo[d]imidazol-6-yl)pyrimidin-2-yl)amino)pyridin-3-yl)piperidin-4-yl)(methyl)amino)methyl)phenyl)dihydropyrimidine-2,4(1H,3H)-dione]"
